Data taken from patent US20080153839A1, “USE OF ANISIC ACID FOR PROMOTING DESQUAMATION” (L'OREAL, priority 2006, published 2008).

Tested on: stratum corneum of normal human skin fragments kept in survival
Experiment: Cohesion of the stratum corneum on skin kept in survival, histological slices stained with hemalun-eosin
Type: cell-based
Details: for % increase in desquamation relative to the control skin / Scores (histological evaluation of the cohesion of the horny layer, semi-quantitative scores): topical; for Scores (histological evaluation of the cohesion of the horny layer, semi-quantitative scores): average of 6 donors, score 0-4, the higher the score the lower the cohesion
Protocol: Fragments of normal human skin are obtained by plastic surgery from 6 different donors. They are placed in inserts, which are themselves positioned on culture wells containing culture medium specifically adapted for maintaining the skin fragments in survival (antibiotics, FCS). The anisic acid is applied topically according to the following protocol and in comparison with an untreated skin (control skin): • control skin • skin+[…] • skin+[…] The cohesion of the horny layer was evaluated using stained histological slices, according to the following semi-quantitative scores (evaluation on 10 to 15 fields at magnification 40): • score 0 absence of change of cohesion of the stratum corneum • score 1 slight reduction in cohesion of the stratum corneum • score 2 moderate reduction in cohesion of the stratum corneum • score 3 large reduction in cohesion of the stratum corneum • score 4 very large reduction in cohesion of the stratum corneum with exfoliation. An average is determined for each parameter from the results obtained on the 6 skin models. The statistical analysis is performed by means of the “reduced deviation” Student test or the paired samples test, with a risk of 5%.

[1] = 0.1% anisic acid, listed as anisic acid
[2] = 1% anisic acid, listed as anisic acid

COc1ccc(C(=O)O)cc1 [Anisic acid, 4-methoxybenzoic acid]
desquamating activity after topical application relative to the control skins (0.1% and 1%, histological reduction in the cohesion of the stratum corneum, no dose effect): significant desquamating activity | % increase in desquamation relative to the control skin (0.1% anisic acid): 95.9% | Scores (histological evaluation of the cohesion of the horny layer, semi-quantitative scores) (0.1% anisic acid): 1.43 ± 0.7 | Scores (histological evaluation of the cohesion of the horny layer, semi-quantitative scores) [1]: 1.43 | % increase in desquamation relative to the control skin [1]: 95.9% | % increase in desquamation relative to the control skin (1% anisic acid): 115% | Scores (histological evaluation of the cohesion of the horny layer, semi-quantitative scores) (1% anisic acid): 1.57 ± 0.4 | Scores (histological evaluation of the cohesion of the horny layer, semi-quantitative scores) [2]: 1.57 | % increase in desquamation relative to the control skin [2]: 115%
